# Test results taken from publication PMC12668310, “High‐Throughput Synthesis and Screening of a Cyanimide Library Identifies Selective Inhibitors of ISG15‐Specific Protease mUSP18” (Angewandte Chemie (International Ed. in English), 2025).
# Where “and” joins values, the source holds several entries; their conditions need not be identical. Identical values can stand only once. Like-named read-outs stand apart in the source and are kept apart here.
# Key:
# [1] = target: T1, mUSP18 (Mus musculus, UniProt Q9WTV6); experiment: High-throughput screening, ISG15ct-RhoMP, single dose 1.25 µM; type: biochemical, murine; details: mUSP18 %inhibition
# T1 construct: (46-368); His-tag (N); made in house
# T1 sequence (Q9WTV6 46-368): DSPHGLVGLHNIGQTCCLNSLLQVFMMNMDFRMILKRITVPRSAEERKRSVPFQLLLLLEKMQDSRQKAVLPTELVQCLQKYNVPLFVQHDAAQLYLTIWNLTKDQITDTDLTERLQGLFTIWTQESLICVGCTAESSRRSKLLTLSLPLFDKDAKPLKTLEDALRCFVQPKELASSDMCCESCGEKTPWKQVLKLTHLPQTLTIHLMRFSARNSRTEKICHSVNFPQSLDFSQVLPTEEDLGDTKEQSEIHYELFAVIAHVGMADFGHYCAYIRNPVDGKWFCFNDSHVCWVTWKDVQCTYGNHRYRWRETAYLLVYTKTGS
# [2] = target: T2, UCHL3 (Homo sapiens, UniProt P15374); experiment: IC50 determination, fluorogenic Ub-Rho-morpholine activity assay; type: biochemical; details: after 30 min incubation; purified compound
# T2 construct: (1-230); made in house
# T2 sequence (P15374 1-230): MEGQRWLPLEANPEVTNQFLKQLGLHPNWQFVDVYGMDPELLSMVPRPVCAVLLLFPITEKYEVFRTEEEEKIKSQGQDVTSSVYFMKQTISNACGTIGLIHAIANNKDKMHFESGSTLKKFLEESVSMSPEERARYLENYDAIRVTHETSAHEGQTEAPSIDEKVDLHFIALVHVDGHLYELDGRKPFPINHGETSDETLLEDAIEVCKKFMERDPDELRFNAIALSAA
# [3] = target: T3, USP32 (Homo sapiens, UniProt Q8NFA0); experiment: as above; type: biochemical; details: after 30 min incubation; purified compound
# T3 construct: (1-1604); His-tag (N); made in house
# [4] = target: T1, mUSP18; experiment: IC50 determination, fluorogenic ISG15CT-Rho-morpholine activity assay; type: biochemical, murine; details: after 30 min incubation; purified compound; ISG15CT-Rho-morpholine substrate
# [5] = target: T4, USP7 (Homo sapiens, UniProt Q93009); experiment: IC50 determination, fluorogenic Ub-Rho-morpholine activity assay; type: biochemical; details: after 30 min incubation; purified compound
# T4 construct: (1-1102); GST (cleaved yes); made in house
# [6] = target: T5, USP30 (Homo sapiens, UniProt Q70CQ3); experiment: biochemical
# T5 sequence (Q70CQ3 57-517): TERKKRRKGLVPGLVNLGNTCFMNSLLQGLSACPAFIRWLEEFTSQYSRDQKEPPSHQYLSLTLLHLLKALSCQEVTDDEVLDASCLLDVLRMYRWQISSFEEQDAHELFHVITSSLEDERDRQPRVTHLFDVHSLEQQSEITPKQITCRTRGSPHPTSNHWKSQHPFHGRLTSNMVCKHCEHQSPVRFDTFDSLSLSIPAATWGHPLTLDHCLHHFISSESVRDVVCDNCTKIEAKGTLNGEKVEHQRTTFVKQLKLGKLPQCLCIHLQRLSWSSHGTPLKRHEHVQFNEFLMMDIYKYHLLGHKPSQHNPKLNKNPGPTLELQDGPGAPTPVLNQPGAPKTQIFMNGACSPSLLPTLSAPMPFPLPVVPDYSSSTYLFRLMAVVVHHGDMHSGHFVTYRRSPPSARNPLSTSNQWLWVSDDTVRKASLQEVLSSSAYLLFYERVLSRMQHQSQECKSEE
# Description: This panel included five proteases from the USP family, two from the UCH family, and one OTU. The IC50 values were determined in a well‐established biochemical activity assay using the fluorogenic substrate Ub‐Rho‐morpholine.^[ [33] ^] For USP18, which is unreactive to Ub but specific for ISG15, we used the ISG15CT‐Rho‐morpholine (consisting of the C‐terminal domain of ISG15) substrate to monitor its activity (see Supporting Information for preparation of this substrate).
# (§1) Enzymes were pre-incubated with a concentration series of the compounds for 30 minutes at
# (§2) room temperature, before addition of the substrate and direct read-out by fluorescence
# (§3) intensity. Data is presented as mean ± SD, n=3.
# room temperature, followed by the addition of substrate and direct read-out by fluorescence
# IC50 and kinact/KI determination
# (§4) The assays were performed at room temperature in “nonbinding surface flat bottom low flange”
# (§5) TrisꞏHCl, 100 mM NaCl, pH 7.6, 2.0 mM cysteine, 1 mg/mL 3-[(3-cholamidopropyl)-
# (§6) dimethylammonio]propanesulfonic acid (CHAPS), and 0.5 mg/mL γ-globulins from bovine
# (§7) blood (BGG). […] The compounds were dissolved in 10
# (§8) mM DMSO stocks, and appropriate volumes were transferred to the empty plates using a
# (§9) Labcyte Echo550 acoustic dispenser. A DMSO back-fill was performed to obtain equal volumes of DMSO (400 μL) in each well. N-ethylmaleimide (NEM, 10 mM) was used a positive
# (§10) steps were performed on a Biotek MultiflowFX liquid dispenser. A 10 μL portion of buffer was added and the plate was vigorously shaken for 20s. Next, 5 μL of recombinant enzyme (4x final concentration) was added followed by incubation for 1h. A 5 μL portion of the substrate
# (§11) (Ub-RhoMP[2] for all DUBs, ISG15ct-RhoMP (vide supra) for USP18 and Z-FR-AMC [Bachem,
# (§12) RhoMP, 10 µM for Z-FR-AMC), and the increase in fluorescence over time was recorded using
# (§13) excitation 360 nm, emission 450 nm for AMC). The initial enzyme velocities were calculated
# (§14) from the slopes, normalized to the positive and negative controls, and plotted against the
# (§15) inhibitor concentrations using the built-in equation “[inhibitor] vs response − variable slope
# (§16) (four parameters), least-squares fit” with constraints “Bottom = 0” and “Top = 100” in GraphPad
# (§17) Prism 7 software to obtain the IC50 values.
# (§18) All data fitting and calculations were done using GraphPad Prism 7 software.
# [7] = target: USP16 (Homo sapiens, UniProt Q9Y5T5); experiment: biochemical
# Description: This panel included five proteases from the USP family, two from the UCH family, and one OTU. The IC50 values were determined in a well‐established biochemical activity assay using the fluorogenic substrate Ub‐Rho‐morpholine.^[ [33] ^]
# as §1, §2, §3
# USP16 Full length N-terminal His-tag Q9Y5T5 In-house, [Mons, 2 nM
# IC50 and kinact/KI determination
# as §4, §5, §6, §7, §8, §9, §10, §11, §12, §13, §14, §15, §16, §17, §18
# [8] = target: T6, UCHL1 (Homo sapiens, UniProt P09936); experiment: IC50 determination, fluorogenic Ub-Rho-morpholine activity assay; type: biochemical
# T6 construct: (1-223); made in house
# T6 sequence (P09936 1-223): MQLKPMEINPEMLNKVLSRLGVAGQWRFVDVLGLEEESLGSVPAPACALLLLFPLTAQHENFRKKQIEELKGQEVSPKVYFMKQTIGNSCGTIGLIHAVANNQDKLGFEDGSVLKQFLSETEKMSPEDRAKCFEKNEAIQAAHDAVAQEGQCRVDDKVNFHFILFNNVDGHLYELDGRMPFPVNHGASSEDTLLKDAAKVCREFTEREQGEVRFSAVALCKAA
# [9] = carboxylic acid (CA) building block alone, read-out: %inh CA only
# [10] = carboxylic acid (CA) with coupling reagents DIC/HOBT, read-out: %inh CA + DIC/HOBT
# T3 sequence (Q8NFA0 whole entry): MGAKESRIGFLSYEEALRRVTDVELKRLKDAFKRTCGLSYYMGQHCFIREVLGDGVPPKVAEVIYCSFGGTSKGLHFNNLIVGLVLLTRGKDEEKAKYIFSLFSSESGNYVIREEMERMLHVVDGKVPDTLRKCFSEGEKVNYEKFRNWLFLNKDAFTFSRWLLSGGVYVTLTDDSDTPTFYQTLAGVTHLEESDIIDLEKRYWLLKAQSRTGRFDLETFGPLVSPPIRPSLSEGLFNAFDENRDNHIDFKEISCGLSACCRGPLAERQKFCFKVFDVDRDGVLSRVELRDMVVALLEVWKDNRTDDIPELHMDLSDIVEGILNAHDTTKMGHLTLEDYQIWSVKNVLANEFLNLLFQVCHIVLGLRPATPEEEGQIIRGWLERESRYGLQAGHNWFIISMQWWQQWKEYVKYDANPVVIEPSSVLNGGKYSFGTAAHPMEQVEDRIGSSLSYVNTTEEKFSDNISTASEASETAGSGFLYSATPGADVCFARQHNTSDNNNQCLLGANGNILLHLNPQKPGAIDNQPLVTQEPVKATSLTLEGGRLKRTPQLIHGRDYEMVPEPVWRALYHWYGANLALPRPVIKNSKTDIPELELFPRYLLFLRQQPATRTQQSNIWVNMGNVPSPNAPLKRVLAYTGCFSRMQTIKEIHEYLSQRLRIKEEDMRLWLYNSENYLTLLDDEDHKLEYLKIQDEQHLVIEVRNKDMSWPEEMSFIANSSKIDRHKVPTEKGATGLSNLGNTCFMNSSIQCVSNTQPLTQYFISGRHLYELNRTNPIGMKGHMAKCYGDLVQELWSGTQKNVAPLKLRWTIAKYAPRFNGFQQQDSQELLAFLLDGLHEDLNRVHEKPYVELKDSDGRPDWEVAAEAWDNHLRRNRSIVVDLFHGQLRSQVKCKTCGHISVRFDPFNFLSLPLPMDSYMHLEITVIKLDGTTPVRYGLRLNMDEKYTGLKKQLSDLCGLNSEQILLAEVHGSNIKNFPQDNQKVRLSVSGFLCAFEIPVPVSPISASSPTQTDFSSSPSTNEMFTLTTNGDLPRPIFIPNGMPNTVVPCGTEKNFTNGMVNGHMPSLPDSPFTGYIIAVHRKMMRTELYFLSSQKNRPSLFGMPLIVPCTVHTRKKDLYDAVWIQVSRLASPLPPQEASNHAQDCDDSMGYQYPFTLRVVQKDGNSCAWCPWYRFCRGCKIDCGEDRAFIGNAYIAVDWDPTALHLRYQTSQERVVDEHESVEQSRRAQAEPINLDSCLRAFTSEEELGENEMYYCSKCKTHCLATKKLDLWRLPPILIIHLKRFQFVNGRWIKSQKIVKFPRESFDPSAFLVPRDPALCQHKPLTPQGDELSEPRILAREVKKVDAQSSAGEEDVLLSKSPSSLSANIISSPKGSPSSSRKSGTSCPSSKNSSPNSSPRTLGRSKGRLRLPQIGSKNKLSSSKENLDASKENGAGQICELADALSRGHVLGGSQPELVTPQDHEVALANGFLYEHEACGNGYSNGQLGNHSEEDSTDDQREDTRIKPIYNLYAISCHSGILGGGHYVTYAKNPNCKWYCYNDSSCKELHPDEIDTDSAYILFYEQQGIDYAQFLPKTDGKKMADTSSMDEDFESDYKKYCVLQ
# USP16, sequence (Q9Y5T5 22-823): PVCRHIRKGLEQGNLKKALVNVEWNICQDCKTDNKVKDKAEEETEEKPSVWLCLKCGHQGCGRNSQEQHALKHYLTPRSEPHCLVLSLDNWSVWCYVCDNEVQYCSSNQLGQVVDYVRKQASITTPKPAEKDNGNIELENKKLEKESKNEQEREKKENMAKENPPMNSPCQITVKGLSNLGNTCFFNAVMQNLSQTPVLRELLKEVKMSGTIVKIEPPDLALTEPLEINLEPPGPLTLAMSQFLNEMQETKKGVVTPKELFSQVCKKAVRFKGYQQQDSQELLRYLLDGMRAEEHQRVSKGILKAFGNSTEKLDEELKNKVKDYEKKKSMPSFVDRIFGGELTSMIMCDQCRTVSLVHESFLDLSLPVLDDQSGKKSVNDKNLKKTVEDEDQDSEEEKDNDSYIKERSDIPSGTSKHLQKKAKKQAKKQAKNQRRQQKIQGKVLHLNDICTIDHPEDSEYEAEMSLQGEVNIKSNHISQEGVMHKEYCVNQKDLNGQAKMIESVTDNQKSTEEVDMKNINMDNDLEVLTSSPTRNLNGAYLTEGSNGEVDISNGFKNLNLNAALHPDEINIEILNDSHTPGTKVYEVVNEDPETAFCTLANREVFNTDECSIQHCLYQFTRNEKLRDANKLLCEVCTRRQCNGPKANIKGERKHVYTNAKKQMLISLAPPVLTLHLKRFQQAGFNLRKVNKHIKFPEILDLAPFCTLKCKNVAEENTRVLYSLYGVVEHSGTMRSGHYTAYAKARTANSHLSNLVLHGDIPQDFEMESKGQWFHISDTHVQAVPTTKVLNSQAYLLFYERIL
# T4 sequence (Q93009 whole entry): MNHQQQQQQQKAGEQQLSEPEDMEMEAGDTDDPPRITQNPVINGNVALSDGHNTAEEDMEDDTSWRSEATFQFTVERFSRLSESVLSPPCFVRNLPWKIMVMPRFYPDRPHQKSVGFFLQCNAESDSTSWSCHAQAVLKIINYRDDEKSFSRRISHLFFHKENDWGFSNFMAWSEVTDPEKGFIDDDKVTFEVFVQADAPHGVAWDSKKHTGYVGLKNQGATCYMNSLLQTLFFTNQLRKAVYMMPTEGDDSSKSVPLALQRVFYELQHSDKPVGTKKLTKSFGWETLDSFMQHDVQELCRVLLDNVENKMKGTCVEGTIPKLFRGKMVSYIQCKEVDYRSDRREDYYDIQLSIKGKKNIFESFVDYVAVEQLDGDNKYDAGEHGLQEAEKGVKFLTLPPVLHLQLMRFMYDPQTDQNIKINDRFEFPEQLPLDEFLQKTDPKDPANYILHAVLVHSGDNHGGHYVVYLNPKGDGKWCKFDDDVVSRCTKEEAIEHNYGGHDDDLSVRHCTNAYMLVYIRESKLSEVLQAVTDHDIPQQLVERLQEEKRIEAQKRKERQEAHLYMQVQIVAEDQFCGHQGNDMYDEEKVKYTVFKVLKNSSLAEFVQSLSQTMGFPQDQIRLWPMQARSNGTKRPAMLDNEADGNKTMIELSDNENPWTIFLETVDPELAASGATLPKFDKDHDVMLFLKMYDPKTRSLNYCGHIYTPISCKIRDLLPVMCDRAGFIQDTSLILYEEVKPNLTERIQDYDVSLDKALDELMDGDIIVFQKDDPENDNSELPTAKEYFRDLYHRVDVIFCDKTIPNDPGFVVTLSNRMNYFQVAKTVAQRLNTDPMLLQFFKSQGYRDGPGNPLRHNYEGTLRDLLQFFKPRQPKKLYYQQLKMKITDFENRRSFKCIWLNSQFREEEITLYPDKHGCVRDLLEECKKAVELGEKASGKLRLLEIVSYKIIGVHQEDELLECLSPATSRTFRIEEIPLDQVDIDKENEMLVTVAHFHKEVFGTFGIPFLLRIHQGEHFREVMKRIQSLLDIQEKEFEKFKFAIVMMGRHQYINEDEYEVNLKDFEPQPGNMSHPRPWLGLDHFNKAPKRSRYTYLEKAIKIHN
SMILES,"inhibition at 1.25 µM [1, 9] [%]","inhibition at 1.25 µM [1, 10] [%]",other results
Cc1ccc(C=CS(=O)(=O)N2CCC(C(=O)O)CC2)cc1 [CA426],-0.61,-6.87,–
O=C(O)c1cccnc1Oc1ccc(Cl)cc1Cl [CA427],-5.52,-6.68,–
O=C(O)Cc1csc(-c2ccccc2)n1 [CA428],-0.27,-5.62,–
Cc1ccccc1-n1cc(C(=O)O)cn1 [CA429],-5.24,4.15,–
O=C(O)c1cccnc1-n1cccn1 [CA430],-3.79,17,–
CCn1nc(C(C)C)cc1C(=O)N1CCCCC1C(=O)O (centres unmarked) [CA431],-2.4,-10.1,–
Cn1nc(C2CCC2)cc1C(=O)O [CA432],-1.28,-6.37,–
O=C(O)c1cccc(Oc2nccs2)c1 [CA433],-0.99,-7.69,–
CNS(=O)(=O)c1ccc(-c2ccccc2OC(F)(F)F)c(C(=O)O)c1 [CA434],-0.67,-3.53,–
O=C(O)Cc1ccc(OCc2ccccn2)cc1 [CA435],-5.3,-2.79,–
O=C(O)c1cc(S(=O)(=O)Nc2cccc(F)c2)ccc1F [CA436],-3.43,-0.67,–
O=C(O)c1ncn(-c2ccccc2)n1 [CA437],-3.12,0.58,–
O=C(O)C1CCCN(c2ccc(Cl)nn2)C1 (centres unmarked) [CA438],-7.25,-2.38,–
O=C(O)c1cn[nH]c1C1CC1 [CA439],-3.97,20.1,–
O=C(O)C1CCCN(c2ncccc2C(F)(F)F)C1 (centres unmarked) [CA440],-5.84,-2.29,–
O=C(O)c1nn(-c2ccccc2)c(=O)[nH]c1=O [CA441],-3.61,-0.87,–
Cn1cc(-c2nc(C(=O)O)cs2)cn1 [CA442],-4.05,-2.36,–
O=C(O)c1ncsc1Cc1ccccc1 [CA443],7.6,12,–
O=C(O)C1CCN(C(=O)N2CCOCC2)CC1 [CA444],-6.76,-0.57,–
Cc1n[nH]c(C)c1Cc1ccc(C(=O)O)o1 [CA445],-7.28,2.15,–
CC1=NN(c2cccc(Br)c2)C(=O)C1CC(=O)O (centres unmarked) [CA446],-10.1,26.8,–
CCn1ccc(-c2cc(C(=O)O)no2)n1 [CA447],9.91,-2.33,–
O=C(O)c1ccc(Cn2ccccc2=O)o1 [CA448],5.37,-5.91,–
CC(C)n1nccc1[1C@@H]1OCC[1C@H]1C(=O)O [CA449],2.37,-9.4,–

SMILES,"inhibition at 1.25 µM [1, 9] [%]","inhibition at 1.25 µM [1, 10] [%]",other results
O=C(O)c1cnc(-c2cccnc2)s1 [CA450],0.56,-9.05,–
O=C(O)c1ccc(=O)n(C2CC2)c1 [CA451],-1.56,-6.2,–
O=C(O)C1CC(=O)N(OCc2ccccc2)C1 (centres unmarked) [CA452],-2.07,-8.76,–
O=C(O)CC1CCN(c2ccc(Cl)nn2)CC1 [CA453],-0.89,-4.65,–
O=C(O)c1cnn(CC2CCC2)c1 [CA454],-1.23,-8.94,–
O=C(O)Cc1csc(C2CC2)n1 [CA455],0.84,-7.57,–
O=C(O)c1cc(C2CCC2)on1 [CA456],1.15,-2.8,–
O=C(O)C(c1ccccc1)n1cccc1 (centres unmarked) [CA457],0.68,-4.48,–
O=C(O)c1nc(N2CCOCC2)ncc1Cl [CA458],2.77,-1.69,–
O=C(O)C1CCCCN1S(=O)(=O)c1ccc(Br)s1 (centres unmarked) [CA459],-0.93,-2.17,–
CC(C)c1cc(C(=O)O)n(-c2ccccc2)n1 [CA460],-1.54,-0.28,–
O=C(O)c1ccc(-c2ncon2)cc1 [CA461],-2.23,-2.33,–
O=C(O)C(CCc1ccccc1)c1ccccc1 (centres unmarked) [CA462],-0.33,-1.15,–
O=C(O)c1cccc(-c2ncon2)c1 [CA463],-1.44,-3.17,–
COC1CC(C(=O)O)N(C(=O)OCc2ccccc2)C1 (centres unmarked) [CA464],-0.15,-1.5,–
Cc1cccc(COc2cccc(C(=O)O)c2)c1 [CA465],2.43,2.72,–
Cn1cc(-c2cc(C(=O)O)no2)cn1 [CA466],-0.57,-1.79,–
O=C(O)Cc1ccc(NS(=O)(=O)c2cccc(C(F)(F)F)c2)cc1 [CA467],-0.52,2.94,–
CC1CCCCN1S(=O)(=O)c1ccccc1C(=O)O (centres unmarked) [CA468],-4.17,7,–
O=C(O)c1ccc(S(=O)(=O)N2CCCCCC2)cc1 [CA469],-5.44,4.89,–
COc1ccccc1-c1cc(C(=O)N[C@@H]2CCN(C#N)C2)n[nH]1 [Compound 2],–,–,"IC50 [2]: 168 µM; IC50 [3]: 0.072 µM; IC50 [4]: 0.029 µM; IC50 [5]: 52 µM; IC50 [6]: 0.059 µM; IC50 [7]: 22.6 µM; IC50 ([8]; after 30 min incubation, purified compound): 110 µM"
N#CN1CC[C@H](C(=O)Nc2ncc(N3CCOCC3)s2)C1 [Compound 5],–,–,IC50 [2]: > 200 µM; IC50 [3]: 242 µM; IC50 [4]: 5.1 µM; less potency toward USP18 and USP30 compared with UCHL1 ([8]; ratio of IC50 values): 20–40 fold
CCN1C(=O)C=CC1=O [NEM],–,–,%inh CA only ([1]; carboxylic acid (CA) building block alone): 100.10% and 99.62%; %inh CA + DIC/HOBT ([1]; carboxylic acid (CA) with coupling reagents DIC/HOBT): 99.98% and 100.30%
